Assay results taken from patent EP0573360A1, “Pyrrolothienopyrazine compounds as 5-HT3 receptors antagonists” (ADIR ET COMPAGNIE, priority 1992, dated 1993).

Molecular target: T1, récepteurs 5-HT3 (Rattus norvegicus, UniProt P35563)
T1 construct: induite par l'injection intraveineuse d'agonistes 5-HT3 chez le rat anesthésié à l'uréthane; from tissue; host or cells: whole animal: Sprague-Dawley rat, vagal afferents
T1 sequence (P35563 24-483): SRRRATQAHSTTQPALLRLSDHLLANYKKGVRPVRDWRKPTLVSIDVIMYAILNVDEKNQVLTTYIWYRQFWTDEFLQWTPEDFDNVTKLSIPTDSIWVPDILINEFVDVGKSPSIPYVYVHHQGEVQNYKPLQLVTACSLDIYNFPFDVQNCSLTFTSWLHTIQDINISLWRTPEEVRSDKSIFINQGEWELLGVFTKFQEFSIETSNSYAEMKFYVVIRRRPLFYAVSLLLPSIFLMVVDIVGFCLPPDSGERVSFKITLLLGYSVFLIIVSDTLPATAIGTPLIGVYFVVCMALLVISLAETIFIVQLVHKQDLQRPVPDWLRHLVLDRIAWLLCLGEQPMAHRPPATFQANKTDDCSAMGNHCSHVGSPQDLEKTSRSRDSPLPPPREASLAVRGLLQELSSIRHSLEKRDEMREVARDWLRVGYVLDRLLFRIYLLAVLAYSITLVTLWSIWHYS
Assay: Bezold-Jarisch bradycardic reflex in the urethane-anaesthetised rat
Format: in vivo
Details: for duration of the transient fall of rythme cardiaque: 30 µg i.v.; for prevention of the agonist-induced fall of rythme cardiaque: prior i.v. administration, dose 1 µg/kg
Source text: La bradycardie (réflexe de BEZOLD-JARISCH) est induite par l'injection intraveineuse d'agonistes 5-HT3 chez le rat anesthésié à l'uréthane. Cette réponse consiste en une bradycardie brutale mais transitoire induite par la stimulation des récepteurs 5-HT3 sur les afférences vagales. Ce modèle est donc tout à fait approprié pour révéler d'éventuels effet agonistes ou antagonistes de composés qui sont des ligands potentiels des récepteurs 5-HT3.
L'animal (rat mâle, adulte - souche Sprague-Dawley, 250-300 g) est tout d'abord anesthésié à l'uréthane (1,4 g/kg i.p.) puis trachéotomisé pour la mise en place d'une canule trachéale. Un cathéter (0,3 mm) est introduit dans l'aorte abdominale via l'artère fémorale pour l'enregistrement en continu de la pression artérielle et du rythme cardiaque. Les agents pharmacologiques sont injectés dans la veine saphène qui a été canulée à cet effet.

SMILES	duration of the transient fall of rythme cardiaque	prevention of the agonist-induced fall of rythme cardiaque
Cc1[nH]c2ccc(O)cc2c1CCN [2-méthyl-5-tryptamine, 2-méthyl-5 hydroxytryptamine]	4-5 secondes	
Cc1nccn1CC1CCc2c(c3ccccc3n2C)C1=O (stereo not shown) [ondansetron]		complétement empêché
NCCc1c[nH]c2ccc(O)cc12 [sérotonine]	4-5 secondes	
COc1cc(N)c(Cl)cc1C(=O)NC1CN2CCC1CC2 (stereo not shown) [zacopride]		complétement empêché
